Experimental data published in ChEMBL document CHEMBL4043084, “Indole Alkaloids from Hunteria zeylanica” (J Nat Prod, 2017).
Calls of active or inactive are those of the source. The rule behind the calls is not given here.

What was measured:
HeLa = assay: Cytotoxicity against human HeLa cells assessed as reduction in cell viability at 0.0624 to 40 uM incubated for 48 hrs by MTT assay; assay type: functional, cell-based
A549 = assay: Cytotoxicity against human A549 cells assessed as reduction in cell viability at 0.0624 to 40 uM incubated for 48 hrs by MTT assay; assay type: functional, cell-based
SGC-7901 = assay: Cytotoxicity against human SGC7901 cells assessed as reduction in cell viability at 0.0624 to 40 uM incubated for 48 hrs by MTT assay; assay type: functional, cell-based
Rhodobium porosum = assay: Insecticidal activity against Rhodobium porosum adults placed on 5 secs compound pre-treated bean leaves after 1 day by leaf dipping protocol based method; assay type: functional

| Structure (SMILES) | Activity (HeLa) | Activity (A549) | Activity (SGC-7901) | LC50 (Rhodobium porosum) [µM] |
| --- | --- | --- | --- | --- |
| CC[C@@]12CCCN3CCc4c(n(c5ccccc45)[C@H](OC)C1)[C@H]32 | inactive | inactive | inactive |  |
| C/C=C1/CN2CC[C@@]34CN5c6c(cccc6[C@@]67CC[N+]8([O-])CCC[C@@]9(CC[C@@]56[C@H]9C)[C@@H]78)[C@@]35[C@@H]2CC1[C@@H](C(=O)OC)N5c1ccccc14 (some centres not stated) | inactive | inactive | inactive |  |
| C/C=C1/C[N@@+]2(C)CCc3c([nH]c4ccc(O)c([C@H]5C[C@@H]6/C(=C\C)CN(C)[C@@H](Cc7c5[nH]c5ccccc75)[C@@]6(CO)C(=O)OC)c34)[C@@H]2C[C@@H]1CCO | inactive | inactive | inactive |  |
| C/C=C1/C[N@@+]2(C)CCc3c([nH]c4ccc(O)c([C@H]5C[C@H]6[C@@]7(C(=O)OC)CO[C@H](N(C)[C@H]7Cc7c5[nH]c5ccccc75)[C@@]65O[C@H]5C)c34)[C@@H]2C[C@@H]1CCO | inactive | inactive | inactive |  |
| C/C=C1/CN2CCc3c([nH]c4ccc(O)c([C@H]5C[C@@H]6/C(=C\C)CN(C)[C@@H](Cc7c5[nH]c5ccccc75)[C@@]6(CO)C(=O)OC)c34)[C@@H]2C[C@@H]1CCO | inactive | inactive | inactive |  |
| C=C[C@H]1CN2CCc3c([nH]c4ccc(O)cc34)[C@@H]2C[C@@H]1CCO | inactive | inactive | inactive | 168 |
| CC[C@H]1CN2CCc3c([nH]c4ccccc34)[C@@H]2C[C@@H]1CCO | inactive | inactive | inactive | 291 |
| C/C=C1\CN2CCc3c([nH]c4ccccc34)[C@@H]2C[C@@H]1CCO | inactive | inactive | inactive | 360 |
| C/C=C1/CN2CC[C@@]34CN5c6c(cccc6[C@@]67CCN8CCC[C@@]9(CC[C@@]56[C@H]9C)[C@H]87)[C@@]35[C@@H]2CC1[C@@H](C(=O)OC)N5c1ccccc14 | inactive | inactive | inactive |  |
| C=C[C@H]1CN2CCc3c([nH]c4ccc(O)c([C@H]5C[C@@H]6/C(=C\C)CN(C)[C@@H](Cc7c5[nH]c5ccccc75)[C@@]6(CO)C(=O)OC)c34)[C@@H]2C[C@@H]1CCO | inactive | inactive | inactive |  |
| C/C=C1/CN2CCc3c([nH]c4ccccc34)[C@@H]2C[C@@H]1[C@H](CO)C(=O)OC | inactive | inactive | inactive |  |
| O=[N+]([O-])/N=C1\NCCN1Cc1ccc(Cl)nc1 |  |  |  | 49 |
| C/C=C1/CN2CCc3c4n(c5ccccc35)[C@H](C(=O)OC)[C@@H]1C[C@@H]42 | inactive | inactive | inactive |  |
| C/C=C1/CN(C)[C@H]2Cc3c([nH]c4ccccc34)[C@@H](c3cc4[nH]c5c(c4cc3O)CCN3C[C@H](CC)[C@@H](CCO)C[C@@H]53)C[C@H]1[C@]2(CO)C(=O)OC | inactive | inactive | inactive |  |
| O[C@H]1CC[C@H]2CN3CCc4c([nH]c5ccccc45)[C@@H]3C[C@@H]2C1 | inactive | inactive | inactive |  |
| O[C@@H]1CC[C@H]2CN3CCc4c([nH]c5ccccc45)[C@@H]3C[C@@H]2C1 | inactive | inactive | inactive |  |
| C/C=C1/C[N@+]2(C)CCc3c([nH]c4ccccc34)C[C@H]1CC2 | inactive | inactive | inactive |  |
| C/C=C1\C[N+]2(C)CCc3c([nH]c4ccc(O)cc34)[C@@H]2C[C@@H]1CCO (some centres not stated) | inactive | inactive | inactive |  |
| CC[C@@]12CCCN3CCc4c(n(c5ccccc45)[C@@H](OC)C1)[C@H]32 | inactive | inactive | inactive |  |
| C/C=C1/C[N@@+](C)([O-])[C@H]2Cc3c4n(c5ccccc35)C35[C@@H]6C[C@H]7/C(=C\C)CN6CCC3(c3ccccc3N5[C@@H]7C(=O)O)[C@H]4CC1[C@H]2C(=O)OC (some centres not stated) | inactive | inactive | inactive |  |
| CC[C@]12CCCN3CC[C@]4(C(=C(C(=O)OC)C1)Nc1ccccc14)[C@@H]32 | inactive | inactive | inactive |  |
| CC[C@@H]1[C@H]2C[C@@H]3c4[nH]c5ccc(OC)cc5c4[C@@H](C(=O)[C@H]2CO)[C@@H]1N3C | inactive | inactive | inactive |  |
